The series in a line: Absorbance and fluorescence measurements (excitation maximum, emission maximum, quantum yield vs coumarin 151). The series is classed as physicochemical. More on the design: key to Quantum Yield: fraction relative to coumarin 151 in ethanol standard. The following applies: for λex: absorbance/excitation maximum; for λex / Quantum Yield / λem: measurements run with methanol; for Quantum Yield: coumarin 151 in ethanol as standard; for Quantum Yield / λem: 2.5 mm slit width; for λem: emission maximum. The source says:
All reagents and solvents were acquired from commercially available suppliers and used without further purification. Methanol(dried on molecular sieves-Acroseal) was obtained from Acros. […] 1H and 13C NMR spectra were obtained on a Bruker NMR spectrometer at 500/400 and 125/100 MHz respectively. The data is reported as follows: chemical shift in ppm (δ), multiplicity (s=singlet, d=doublet, dd=doublet of doublets, t=triplet, dt=doublet of triplets, td=triplet of doublets, q=quartet, p=pentet, m=multiplet). Coupling constants are reported in Hertz (Hz) and were automatically generated using known NMR analyzer software (MestReNova), these were then subsequently curated. High-resolution mass spectra were obtained using the positive ESI method for all the compounds, obtained in an Ion Cyclotron Resonance (ICR) spectrometer. Absorbance spectra were obtained using an Agilent 8453 UV-visible spectroscopy system. Fluorescence was measured on a Varian (Agilent) Cary Eclipse Fluorimeter. Quantum yield measurements were calculated and reported using coumarin 151 in ethanol as a standard.^1 Fluorescence scans were obtained using a 2.5 mm slit width unless otherwise noted.
The fluorescence was also measured in different solvents to examine the solvent effects.

For the compound `Nc1c(-c2ccccc2)nc2ccccn12` [Compound 10f, 2-phenylimidazo[1,2-a]pyridin-3-amine], the λex is on record as 339 nm, the “Quantum Yield” value was found to be 0.30 and the λem is 473 nm.
The corresponding values for `COc1ccc(-c2nc3ccccn3c2N)cc1` [Compound 10g, 2-(4-methoxyphenyl)imidazo[1,2-a]pyridin-3-amine] are 340 nm, 0.39 and 472 nm.
In turn, `Nc1c(-c2ccccn2)nc2ccccn12` [Compound 10h, 2-(pyridin-2-yl)imidazo[1,2-a]pyridin-3-amine] had a λex of 370 nm.
Same read-out and setting: for `Nc1c(-c2ccccc2[N+](=O)[O-])nc2ccccn12` [Compound 10i, 2-(2-nitrophenyl)imidazo[1,2-a]pyridin-3-amine] the value was 330 nm; for `Nc1c(-c2cccc([N+](=O)[O-])c2)nc2ccccn12` [Compound 10j, 2-(3-nitrophenyl)imidazo[1,2-a]pyridin-3-amine], 350 nm.
For the compound `Nc1c(-c2ccc([N+](=O)[O-])cc2)nc2ccccn12` [Compound 10k, 2-(4-nitrophenyl)imidazo[1,2-a]pyridin-3-amine], the “fluorescence (observation in words)” value is listed as “did not show any observable fluorescence intensity” and the λex was found to be 304 nm.
On to `Nc1c(-c2ccc(Oc3ccccc3)cc2)nc2ccccn12` [Compound 10m, 2-(4-phenoxyphenyl)imidazo[1,2-a]pyridin-3-amine], for which the λex is on record as 343 nm, the “Quantum Yield” value was 0.40 and the λem was 474 nm.
Take `Nc1c(-c2cccc(Oc3ccccc3)c2)nc2ccccn12` [Compound 10n, 2-(3-phenoxyphenyl)imidazo[1,2-a]pyridin-3-amine]: the λex is given as 339 nm, the “Quantum Yield” value was 0.40 and the λem worked out at 474 nm.
On the same counts, the results for `Cn1cccc1-c1nc2ccccn2c1N` [Compound 10o, 2-(1-methyl-1H-pyrrol-2-yl)imidazo[1,2-a]pyridin-3-amine] are 349 nm, 0.20 and 478 nm.
On the same counts, the results for `Nc1c(-c2ccc(N(c3ccccc3)c3ccccc3)cc2)nc2ccccn12` [Compound 10p, 2-(4-(diphenylamino)phenyl)imidazo[1,2-a]pyridin-3-amine] are 353 nm, 0.34 and 471 nm.
On to `CCN(CC)c1ccc(-c2nc3ccccn3c2N)cc1` [Compound 10q, 2-(4-(diethylamino)phenyl)imidazo[1,2-a]pyridin-3-amine], for which the λex amounted to 341 nm, the “Quantum Yield” value is on record as 0.12 and the λem is 486 nm.
On the same counts, the results for `COc1cc(OC)cc(-c2nc3ncccn3c2N)c1` [Compound 10r, 2-(3,5-dimethoxyphenyl)imidazo[1,2-a]pyrimidin-3-amine] are 371 nm, 0.02 and 553 nm.
On the same counts, the results for `COc1cc(OC)cc(-c2nc3cnccn3c2N)c1` [Compound 10s, 2-(3,5-dimethoxyphenyl)imidazo[1,2-a]pyrazin-3-amine] are 382 nm, 0.35 and 477 nm.
On the same counts, the results for `COC(=O)c1ccn2c(N)c(-c3cc(OC)cc(OC)c3)nc2c1` [Compound 10v, methyl 3-amino-2-(3,5-dimethoxyphenyl)imidazo[1,2-a]pyridine-7-carboxylate] are 403 nm, 0.42 and 514 nm.
For `COC(=O)c1ccc2nc(-c3cc(OC)cc(OC)c3)c(N)n2c1` [Compound 10w, methyl 3-amino-2-(3,5-dimethoxyphenyl)imidazo[1,2-a]pyridine-6-carboxylate], the λex is given as 343 nm, the “Quantum Yield” value stood at 0.02 and the λem is listed as 473 nm.

The values above are taken from patent publication US20260071117A1, “FUNABLE FLUORESCENT COMPOUNDS AND USES THEREOF” (Arizona Board of Regents on Behalf of the University of …, priority 2021, published 2026).
